Data published in ChEMBL document CHEMBL4177762, “Combined Approach of Backbone Amide Linking and On-Resin N-Methylation for the Synthesis of Bioactive and Metabolically Stable Peptides” (J Med Chem, 2018).
In brackets after ≈: the same amount, converted by molar mass. Activity calls are given as the source filed them. The calls are words filed in the database; no cut-off is given here. Non-standard residues stand in square brackets, D forms with d. Residues, ends and D or L forms follow the SMILES beside them. *: point of attachment. NMeVal(β-OH) = CN[C@H](C(=O)O)C(C)(C)O; NH(4-OH-phenethyl) = Oc1ccc(CCN*)cc1; NMeL = CN[C@@H](CC(C)C)C(=O)O; NHPhenethyl = c1ccc(CCN*)cc1; NMeV = CN[C@H](C(=O)O)C(C)C

Legend:
[1] = test system: Trypanosoma brucei rhodesiense; experiment: Antiprotozoal activity against trypomastigote stage of Trypanosoma brucei rhodesiense STIB900 after 72 hrs by Alamar Blue assay; format: functional, organism-based
Staphylococcus aureus [2] = experiment: Antibacterial activity against Staphylococcus aureus ATCC 29213 assessed as growth inhibition up to 128 ug/ml; format: functional, organism-based
Staphylococcus aureus [3] = experiment: Antibacterial activity against methicillin-resistant Staphylococcus aureus ATCC 43300 assessed as growth inhibition up to 128 ug/ml; format: functional, organism-based
Enterococcus faecalis = experiment: Antibacterial activity against Enterococcus faecalis ATCC 29212 assessed as growth inhibition up to 128 ug/ml; format: functional, organism-based
Micrococcus luteus = experiment: Antibacterial activity against Micrococcus luteus ATCC 9341 assessed as growth inhibition up to 128 ug/ml; format: functional, organism-based
Escherichia coli = experiment: Antibacterial activity against Escherichia coli ATCC 25922 assessed as growth inhibition up to 128 ug/ml; format: functional, organism-based
Pseudomonas aeruginosa = experiment: Antibacterial activity against Pseudomonas aeruginosa ATCC 27853 assessed as growth inhibition up to 128 ug/ml; format: functional, organism-based
[4] = Half life in Galleria mellonella hemolymph plasma at 0.5 mM by HPLC-MS method; format: ADME, cell-free
[5] = Drug metabolism in Sprague-Dawley rat liver microsomes assessed as CYP450-mediated (S)-2-((S)-N,3-dimethyl-2-(methylamino)butanamido)-N-((S)-1-(((S)-1-(4-hydroxyphenethylamino)-3-methyl-1-oxobutan-2-yl)(methyl)amino)-3-methyl-1-oxobutan-2-yl)-N,3-dimethylbutanamide formation at 1 mM preincubated with NADPH regenerating system followed by microsome addition measured after 15 to 60 mins by HR-HPLC-MS method; format: ADME; settings: 1000 µM
[6] = Drug metabolism in Sprague-Dawley rat liver microsomes assessed as CYP450-mediated (S)-3-hydroxy-N,3-dimethyl-N-((S)-3-methyl-1-(methyl((S)-3-methyl-1-(methyl((S)-3-methyl-1-oxo-1-(phenethylamino)butan-2-yl)amino)-1-oxobutan-2-yl)amino)-1-oxobutan-2-yl)-2-(methylamino)butanamide formation at 1 mM preincubated with NADPH regenerating system followed by microsome addition measured after 15 to 60 mins by HR-HPLC-MS method; format: ADME; settings: 1000 µM
[7] = Drug level in Sprague-Dawley rat liver microsomes assessed as CYP450-mediated compound formation treated with (S)-2-((S)-N,3-dimethyl-2-(methylamino)butanamido)-N,3-dimethyl-N-((S)-3-methyl-1-(methyl((S)-3-methyl-1-oxo-1-(phenethylamino)butan-2-yl)amino)-1-oxobutan-2-yl)butanamide at 1 mM preincubated with NADPH regenerating system followed by microsome addition measured after 15 to 60 mins by HR-HPLC-MS method; format: ADME; settings: 1000 µM
L6 = experiment: Cytotoxicity against rat L6 cells after 72 hrs by Alamar Blue assay; format: cell-based; settings: L6, 72 h
[8] = Drug metabolism in Sprague-Dawley rat liver microsomes assessed as CYP450-mediated (S)-2-amino-N-((S)-1-((S)-1-((S)-1-(4-hydroxyphenethylamino)-3-methyl-1-oxobutan-2-ylamino)-3-methyl-1-oxobutan-2-ylamino)-3-methyl-1-oxobutan-2-yl)-3-methylbutanamide formation at 1 mM preincubated with NADPH regenerating system followed by microsome addition measured after 15 to 60 mins by HR-HPLC-MS method; format: ADME; settings: 1000 µM
[9] = Drug metabolism in Sprague-Dawley rat liver microsomes assessed as CYP450-mediated (S)-2-((S)-2-amino-3-methylbutanamido)-3-hydroxy-3-methyl-N-((S)-3-methyl-1-((S)-3-methyl-1-oxo-1-(phenethylamino)butan-2-ylamino)-1-oxobutan-2-yl)butanamide formation at 1 mM preincubated with NADPH regenerating system followed by microsome addition measured after 15 to 60 mins by HR-HPLC-MS method; format: ADME; settings: 1000 µM
[10] = Drug metabolism in Sprague-Dawley rat liver microsomes assessed as CYP450-mediated (S)-2-((S)-2-((S)-2-amino-3-methylbutanamido)-3-methylbutanamido)-3-hydroxy-3-methyl-N-((S)-3-methyl-1-oxo-1-(phenethylamino)butan-2-yl)butanamide formation at 1 mM preincubated with NADPH regenerating system followed by microsome addition measured after 15 to 60 mins by HR-HPLC-MS method; format: ADME; settings: 1000 µM

Row | SMILES | growth inhibition (GI) (Staphylococcus aureus [2]) | growth inhibition (GI) (Staphylococcus aureus [3]) | growth inhibition (GI) (Enterococcus faecalis) | growth inhibition (GI) (Micrococcus luteus) | growth inhibition (GI) (Escherichia coli) | growth inhibition (GI) (Pseudomonas aeruginosa) | half-life at 500 µM [4] [min] | Drug metabolism [7] | IC50 (L6) [µg/mL] | further results
1 | CN[C@H](C(=O)N(C)[C@H](C(=O)N(C)[C@H](C(=O)N(C)[C@H](C(=O)NCCc1ccccc1)C(C)C)C(C)C)C(C)C)C(C)C (H-[NMeV][NMeV][NMeV][NMeV]-NHPhenethyl) | inactive | inactive | inactive | inactive | inactive | inactive | > 240 | – | – | Activity [1]: Active; Drug metabolism [5]: Metabolite_Detected; Drug metabolism [6]: Metabolite_Detected
2 | CN[C@H](C(=O)N(C)[C@H](C(=O)N(C)[C@H](C(=O)N(C)[C@H](C(=O)NCCc1ccc(O)cc1)C(C)C)C(C)C)C(C)C)C(C)C (H-[NMeV][NMeV][NMeV][NMeV]-{NH(4-OH-phenethyl)}) | – | – | – | – | – | – | – | Metabolite_Detected | – | –
3 | CN[C@H](C(=O)N(C)[C@H](C(=O)N(C)[C@H](C(=O)N(C)[C@H](C(=O)NCCc1ccccc1)C(C)C)C(C)C)C(C)C)C(C)(C)O (H-[NMeVal(β-OH)][NMeV][NMeV][NMeV]-NHPhenethyl) | – | – | – | – | – | – | – | Metabolite_Detected | – | –
4 | CN[C@@H](CC(C)C)C(=O)N(C)[C@@H](CC(C)C)C(=O)N(C)[C@@H](CC(C)C)C(=O)N(C)[C@@H](CC(C)C)C(=O)NCCc1ccc(O)cc1 (H-[NMeL][NMeL][NMeL][NMeL]-{NH(4-OH-phenethyl)}) | inactive | inactive | inactive | inactive | inactive | inactive | – | – | 30.6 (≈ 47.4 µM) | –
5 | CN[C@@H](CC(C)C)C(=O)N(C)[C@@H](CC(C)C)C(=O)N(C)[C@@H](CC(C)C)C(=O)N(C)[C@@H](CC(C)C)C(=O)NCCc1ccccc1 | inactive | inactive | inactive | inactive | inactive | inactive | – | – | 16.7 (≈ 26.5 µM) | IC50 ([1]; STIB900, 72 h): 1.4 to 2.1 µg/mL (≈ 2.22 to 3.33 µM)
6 | CC(C)[C@H](N)C(=O)N[C@H](C(=O)N[C@H](C(=O)N[C@H](C(=O)NCCc1ccccc1)C(C)C)C(C)C)C(C)C (H-VVVV-NHPhenethyl) | – | – | – | – | – | – | 30 | – | – | Drug metabolism [8]: Metabolite_Detected; Drug metabolism [9]: Metabolite_Detected; Drug metabolism [10]: Metabolite_Detected
